Test results as given in patent US11161860B2, “Compound having effects of inhibiting phosphodiesterase 4, preparation method thereof and pharmaceutical use thereof” (Hefei Industrial Pharmaceutical Institute Co., Ltd., priority 2018, dated 2021).
Marks after values point to notes of the source that are not given here.

Tests used:
[1] = target: T1, PDE4A enzyme (Homo sapiens, UniProt P27815); assay: Inhibition of the activity of PDE4A enzyme (fluorescence polarization, Transcreener AMP2/GMP2); assay type: biochemical; details: 1 h, mean ± spread; for remaining activity at 0.01 µM: 0.01 μM compound; for remaining activity at 0.1 µM: 0.1 μM compound; for remaining activity at 1 µM: 1 μM compound
T1 construct: GST (N); host or cells: Sf9 insect cells (baculovirus)
Protocol: The PDE4A enzyme expressed from baculovirus is labeled with N-terminal GST from Sf9 insect cells. A specified PDE4A enzyme and 1 mM cAMP are added to the newly prepared pH 7.5 Tris buffer, the enzyme solution is transferred into reaction wells, and the compound is sonicated in DMSO and then added to the enzyme solution for culturing for 10 minutes at room temperature; the substrate solution is poured into the reaction wells to initiate the reaction and cultured at room temperature for 1 hour, and a detection tracer (AMP2/GMP2 AlexaFluor 633 Tracer) and an antibody (Transcreener® AMP2/GMP2 Antibody) are added to stop the reaction for culturing for 90 minutes with gentle mixing. […]

[2] = system: DNCB-induced atopic dermatitis mice; assay: DNCB-induced dermatitis mouse model, skin thickness; assay type: in vivo, female BALB/C mice; details: for reduction of the thickness of the dermis compared with Crisaborole / reduction of the thickness of the epidermis compared with Crisaborole / reduction of the thickness of the dermis compared with the compound Y5 / reduction of the thickness of the epidermis compared with the compound Y5: 50 mg/mL topical; for reduction of the thickness of the dermis compared with Crisaborole / reduction of the thickness of the epidermis compared with Crisaborole: statistical comparison vs Crisaborole group; for reduction of the thickness of the dermis compared with the compound Y5 / reduction of the thickness of the epidermis compared with the compound Y5: statistical comparison vs Y5 group; for Epidermal thickness / Dermis thickness: 50 mg/mL, 100 μL applied to back skin, 11 times once a day, Mean ± SD, n = 8; for Epidermal thickness: model 137.76, blank 48.93; for Dermis thickness: model 500.71, blank 194.70
Protocol: After female BALB/C mice are selected, each weighing 18-22 g, for animal adaptive breeding for 7 days, these are randomly divided into a blank group, a model group, a positive drug Crisaborole group, a hexadecadrol group, and compound groups, with 8 in each group. Except for the mice in the blank group, the remaining mice are applied with 100 μL of a 1% DNCB solution [acetone: olive oil=4:1 (V/V)] on the skin of the back of the shaved mice, and applied continuously for 3 days once a day. Then, dosing treatment starts 4 days after the mice are housed, and the test drug is applied to the back of each group of animals, wherein animals in the blank group and the model group are applied with a corresponding solvent, the positive drug Crisaborole group and hexadecadrol group are applied with 50 mg/mL of a corresponding drug, and the administration group is applied with 50 mg/mL of a corresponding compound, with 100 μL for each mouse; after application of 4 hours, 0.5% DNCB solution is applied for secondary challenge, and repeated administration and challenge treatment are performed 11 times, once a day. 24 hours after the last administration, the animals are sacrificed, and the back skins (1×0.4 cm^2) are taken and fixed in 10% formalin buffer to make pathological sections and perform HE staining; then, the epidermal and dermal layers are observed under a 100× […], and 5 areas are selected for detection of and recording the skin thickness, and then the average value is taken to represent the final thicknesses of the epidermal layer and dermal layer, respectively.

T1 sequence (P27815 whole entry, species assumed): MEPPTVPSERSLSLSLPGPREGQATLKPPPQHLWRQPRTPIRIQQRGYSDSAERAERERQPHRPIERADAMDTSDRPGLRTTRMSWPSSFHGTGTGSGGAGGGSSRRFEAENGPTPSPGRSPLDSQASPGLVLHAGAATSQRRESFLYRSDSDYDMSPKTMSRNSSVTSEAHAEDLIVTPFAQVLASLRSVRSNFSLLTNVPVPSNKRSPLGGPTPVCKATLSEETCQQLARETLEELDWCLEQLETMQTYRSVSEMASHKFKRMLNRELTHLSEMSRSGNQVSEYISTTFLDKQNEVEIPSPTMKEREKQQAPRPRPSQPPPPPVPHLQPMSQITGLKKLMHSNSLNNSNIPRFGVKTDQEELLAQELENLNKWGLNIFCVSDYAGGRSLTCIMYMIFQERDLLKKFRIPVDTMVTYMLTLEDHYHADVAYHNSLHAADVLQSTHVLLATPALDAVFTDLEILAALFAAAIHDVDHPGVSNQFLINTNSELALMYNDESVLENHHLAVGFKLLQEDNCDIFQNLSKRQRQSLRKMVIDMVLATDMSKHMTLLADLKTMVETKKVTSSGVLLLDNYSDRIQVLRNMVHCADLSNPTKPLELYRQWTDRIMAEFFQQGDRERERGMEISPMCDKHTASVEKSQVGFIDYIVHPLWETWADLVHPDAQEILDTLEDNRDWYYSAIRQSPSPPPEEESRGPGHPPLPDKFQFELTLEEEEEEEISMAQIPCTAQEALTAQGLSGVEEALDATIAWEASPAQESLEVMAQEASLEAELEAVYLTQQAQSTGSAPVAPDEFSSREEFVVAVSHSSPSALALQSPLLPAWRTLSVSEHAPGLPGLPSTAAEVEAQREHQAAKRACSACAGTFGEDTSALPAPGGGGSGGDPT

remaining activity at 0.01 µM [1] [%] | remaining activity at 0.1 µM [1] [%] | remaining activity at 1 µM [1] [%] | SMILES | reduction of the thickness of the dermis compared with Crisaborole [2] | reduction of the thickness of the epidermis compared with Crisaborole [2] | reduction of the thickness of the dermis compared with the compound Y5 [2] | reduction of the thickness of the epidermis compared with the compound Y5 [2] | Epidermal thickness [2] | Dermis thickness [2]
22.1 ± 0.57 | 6.2 ± 1.23 | 3.46 ± 1.12 | CC(=O)c1cccc2nc(Oc3ccc4c(c3)COB4O)ccc12 [PD-12] | significantly reduce the thickness of the dermis of dermatitis mice (P≤0.01) | significantly reduce the thickness of the epidermis (P≤0.01) | significantly reduce the thickness of the dermis of dermatitis mice (P≤0.01) | significantly reduce the thickness of the epidermis (P≤0.01) | 72.15 ± 8.57 aa μm | 362.44 ± 25.78 ^a a μm
21.7 ± 1.51 | 8.68 ± 0.89 | 1.44 ± 0.4 | NC(=O)c1ccc2nc(Oc3ccc4c(c3)COB4O)ccc2c1 [PD-13] |  |  |  |  | 100.23 ± 11.62 μm | 450.26 ± 25.55 μm
3.57 ± 1.08 | 1.26 ± 1.17 | 0.15 ± 0.1 | CC(=O)c1ccc2nc(Oc3ccc4c(c3)COB4O)ccc2c1 [PD-14] | significantly reduce the thickness of the dermis of dermatitis mice (P≤0.01) | significantly reduce the thickness of the epidermis (P≤0.01) | significantly reduce the thickness of the dermis of dermatitis mice (P≤0.01) | significantly reduce the thickness of the epidermis (P≤0.01) | 75.24 ± 7.98 aa μm | 365.40 ± 21.95 ^a a μm
2.09 ± 0.99 | 0.54 ± 0.5 | 1.08 ± 0.4 | OB1OCc2cc(Oc3ccc4cc(C(F)(F)F)c(Cl)cc4n3)ccc21 [PD-15] | significantly reduce the thickness of the dermis of dermatitis mice (P≤0.01) | significantly reduce the thickness of the epidermis (P≤0.01) | significantly reduce the thickness of the dermis of dermatitis mice (P≤0.01) | significantly reduce the thickness of the epidermis (P≤0.01) | 74.28 ± 8.26**^##aa μm | 376.62 ± 23.73 ^a a μm
1.05 ± 1.26 | 0.45 ± 0.3 | 0.21 ± 0.57 | N#Cc1cc2ccc(Oc3ccc4c(c3)COB4O)nc2cc1Cl [PD-16] | significantly reduce the thickness of the dermis of dermatitis mice (P≤0.01) | significantly reduce the thickness of the epidermis (P≤0.01) | significantly reduce the thickness of the dermis of dermatitis mice (P≤0.05) | significantly reduce the thickness of the epidermis (P<0.05) | 78.64 ± 9.75 a μm | 388.46 ± 24.06 a μm
4.17 ± 0.99 | 1.89 ± 0.6 | 0.77 ± 0.39 | OB1OCc2cc(Oc3cc(C(F)(F)F)c4cc(C(F)(F)F)ccc4n3)ccc21 [PD-17] | significantly reduce the thickness of the dermis of dermatitis mice (P≤0.01) | significantly reduce the thickness of the epidermis (P≤0.01) | significantly reduce the thickness of the dermis of dermatitis mice (P≤0.01) |  | 80.76 ± 10.51 μm | 380.74 ± 20.15 ^a a μm
1.52 ± 0.44 | 0.46 ± 0.35 | 0.13 ± 0.06 | COC(=O)c1ccc2nc(Oc3ccc4c(c3)COB4O)cc(C(F)(F)F)c2c1 [PD-18] |  |  |  |  | 90.35 ± 11.20 μm | 436.16 ± 35.42 μm
4.22 ± 0.86 | 1.56 ± 0.48 | 0.54 ± 0.47 | CC(=O)c1ccc2nc(Oc3ccc4c(c3)COB4O)cc(C(F)(F)F)c2c1 [PD-19] |  |  |  |  | 96.05 ± 9.75 μm | 441.12 ± 30.17 μm
6.13 ± 0.93 | 3.64 ± 0.48 | 1.78 ± 0.5 | COC(=O)c1ccc2nc(Oc3ccc4c(c3)COB4O)cc(F)c2c1 [PD-20] |  |  |  |  | 98.74 ± 10.55 μm | 438.14 ± 29.71 μm
1.64 ± 0.55 | 0.33 ± 0.23 | 0.28 ± 0.14 | OB1OCc2cc(Oc3cc(F)c4cc(C(F)(F)F)ccc4n3)ccc21 [PD-21] | significantly reduce the thickness of the dermis of dermatitis mice (P≤0.01) | significantly reduce the thickness of the epidermis (P≤0.01) | significantly reduce the thickness of the dermis of dermatitis mice (P≤0.05) | significantly reduce the thickness of the epidermis (P≤0.01) | 70.62 ± 7.12 ^aa μm | 383.34 ± 24.40**^##a μm
7.16 ± 1.04 | 3.06 ± 0.27 | 1.78 ± 0.63 | N#Cc1ccc2nc(Oc3ccc4c(c3)COB4O)cc(F)c2c1 [PD-22] |  |  |  |  | 103.45 ± 11.74 μm | 447.77 ± 33.37 μm
9.26 ± 0.73 | 4.51 ± 0.94 | 2.45 ± 0.76 | OB1OCc2cc(Oc3ccc4cc(C(F)(F)F)ccc4c3)ccc21 [PD-23] |  |  |  |  | 97.34 ± 8.36 μm | 435.56 ± 27.08 μm
9.17 ± 1 | 7.31 ± 1.16 | 2.64 ± 0.56 | COC(=O)c1cccc2cc(Oc3ccc4c(c3)COB4O)ccc12 [PD-24] | significantly reduce the thickness of the dermis of dermatitis mice (P≤0.05) | significantly reduce the thickness of the epidermis of the dermatitis mice (P≤0.05) |  |  | 91.17 ± 9.03 μm | 420.33 ± 24.75 μm
7.17 ± 0.64 | 1.95 ± 1.18 | 2.27 ± 0.74 | N#Cc1ccc2cc(Oc3ccc4c(c3)COB4O)ccc2c1 [PD-25] | significantly reduce the thickness of the dermis of dermatitis mice (P≤0.05) | significantly reduce the thickness of the epidermis of the dermatitis mice (P≤0.05) |  |  | 87.77 ± 10.58 μm | 412.42 ± 26.74 μm
12.8 ± 1.82 | 7.23 ± 1.83 | 2.04 ± 0.24 | N#Cc1ccc2nc(Cl)cc(Oc3ccc4c(c3)COB4O)c2c1 [PD-26] | significantly reduce the thickness of the dermis of dermatitis mice (P≤0.01) | significantly reduce the thickness of the epidermis of the dermatitis mice (P≤0.05) |  |  | 83.94 ± 7.63 μm | 408.97 ± 23.06 μm
12.9 ± 1.86 | 9.49 ± 1.59 | 2.69 ± 1.77 | COC(=O)c1ccc2nc(Cl)cc(Oc3ccc4c(c3)COB4O)c2c1 [PD-27] |  |  |  |  | 97.73 ± 8.95 μm | 430.05 ± 27.90 μm
9.14 ± 0.89 | 4.42 ± 0.64 | 2.1 ± 0.93 | OB1OCc2cc(Oc3cc(Cl)nc4ccc(C(F)(F)F)cc34)ccc21 [PD-28] |  |  |  |  | 70.51 ± 12.45 μm | 352.69 ± 30.77**^aa μm
